The values below come from ChEMBL document CHEMBL3870312, “Rational modification of donepezil as multifunctional acetylcholinesterase inhibitors for the treatment of Alzheimer's disease” (Eur J Med Chem, 2016).

The nature of data set [1]: Metal chelating activity of the compound assessed as formation of copper complex at 10 uM by UV-vis spectrometry. The format is physicochemical.
In data set [2] the target is Acetylcholinesterase (Electrophorus electricus, UniProt O42275).
Description: Inhibition of electric eel AChE using acetylthiocholine iodide as substrate preincubated for 5 mins followed by substrate addition measured up to 3 mins by Ellman's method
Data set [3] can be described thus: Metal chelating activity of the compound assessed as formation of ferric complex at 50 uM by fluorescence spectrophotometry. The format is physicochemical.
Data set [4] concerns Mus musculus. As to the kind of experiment: Hepatotoxicity in scopolamine-induced memory deficit Kunming mouse model assessed as area of necrosis in hepatocytes at 10 mg/Kg, po for 6 days by hematoxylin and eosin-staining based microscopic analysis. The format is toxicity, organism-based, Hepatocyte. To be noted: 144 h.
Data set [5] can be described thus: Inhibition of copper-mediated aggregation of amyloid beta (1 to 42 residues) (unknown origin) incubated for 46 to 48 hrs by thioflavin-T binding assay. The format is physicochemical.
The test system of data set [6] is Mus musculus. The data set is described as follows: Toxicity in scopolamine-induced memory deficit Kunming mouse model assessed as change in body weight at 2.5 to 10 mg/Kg, po for 7 days. The format is organism-based. As to conditions: in vivo, 168 h.
Data set [7] deals with Cholinesterase (Equus caballus, UniProt P81908).
Description: Inhibition of equine serum BuChE using s-butyrylthiocholine iodide as substrate preincubated for 5 mins followed by substrate addition measured up to 3 mins by Ellman's method
Data set [8] deals with PC-12. As to the kind of experiment: Neuroprotective activity against amyloid beta (1 to 42 residues) induced cell death in rat PC12 cells assessed as increase in cell viability at 10 to 20 uM preincubated for 24 hrs followed by amyloid beta (1 to 42 residues) addition measured after 24 hrs by MTT assay. The format is functional, cell-based. (Tetrazolium assays rely on reduction of a dye to a coloured formazan, in cell work by metabolically active cells.)

Data set [9] has as its system PC-12. The data set is described as follows: Neuroprotective activity against Cu2+-amyloid beta (1 to 42 residues) induced cell death in rat PC12 cells assessed as increase in cell viability at 2.5 to 20 uM preincubated for 24 hrs followed by Cu2+-amyloid beta (1 to 42 residues) addition measured after 24 hrs by MTT assay. The format is functional, cell-based.
Data set [10] concerns Mus musculus. The data set is described as follows: Hepatotoxicity in scopolamine-induced memory deficit Kunming mouse model assessed as increased aspartate aminotransferase at 10 mg/Kg, po for 6 days. The format is toxicity, organism-based. To be noted: in vivo, 144 h.
For data set [11], the system named is Mus musculus. The data set is described as follows: Toxicity in scopolamine-induced memory deficit Kunming mouse model assessed as effect on survival at 2.5 to 10 mg/Kg, po for 7 days. As to conditions: in vivo, 168 h. The format is organism-based.
The test system of data set [12] is Mus musculus. As to the kind of experiment: Hepatotoxicity in scopolamine-induced memory deficit Kunming mouse model assessed as distinct fatty degeneration in hepatocytes at 10 mg/Kg, po for 6 days by hematoxylin and eosin-staining based microscopic analysis. The format is toxicity, organism-based. To be noted: in vivo, 144 h.
Data set [13] concerns Mus musculus. The data set is described as follows: Cognitive enhancement activity in po dosed scopolamine-induced memory deficit Kunming mouse model assessed as increase in step-through latency time treated for 1 hr before training followed by scopolamine challenge 30 mins before training measured 24 hrs after training trial by passive avoidance test. The format is functional, organism-based.

Data set [14] deals with Cholinesterase (Homo sapiens, UniProt P06276).
Description: Inhibition of human serum BuChE using s-butyrylthiocholine iodide as substrate preincubated for 5 mins followed by substrate addition measured up to 3 mins by Ellman's method
Data set [15] deals with Mus musculus. The data set is described as follows: Hepatotoxicity in scopolamine-induced memory deficit Kunming mouse model assessed as increase in alanine aminotransferase levels at 10 mg/kg, po for 6 days. The format is toxicity, organism-based. To be noted: in vivo, 144 h.
A short description of data set [16]: Metal chelating activity of the compound assessed as formation of copper complex at 50 uM by fluorescence spectrophotometry. The format is physicochemical.
For data set [17], the target named is T1, Acetylcholinesterase (Homo sapiens, UniProt P22303).
Description: Inhibition of human erythrocytes AChE using acetylthiocholine iodide as substrate preincubated for 5 mins followed by substrate addition measured up to 3 mins by Ellman's method
In data set [18] the test system is Mus musculus. As to the kind of experiment: Hepatotoxicity in scopolamine-induced memory deficit Kunming mouse model assessed as increase in number of inflammatory cells in portal fields of liver at 10 mg/Kg, po for 6 days by hematoxylin and eosin-staining based microscopic analysis. The format is toxicity, organism-based. As to conditions: in vivo, 144 h.
The nature of data set [19]: Metal chelating activity assessed as Zn2+-compound complex formation at 50 uM by fluorescence spectrophotometry. The format is physicochemical.
Data set [20] in a line: Metal chelating activity assessed as mole fraction of compound required to show 1:1 stoichiometry for Cu2+-compound complex at 10 uM by UV-vis spectrometry. The format is physicochemical.
The test system of data set [21] is PC-12. The data set is described as follows: Neuroprotective activity against amyloid beta (1 to 42 residues) induced cell death in rat PC12 cells by phase-contrast microscopy analysis. The format is functional, cell-based.
Another data set is filed under the species Rattus norvegicus. The data set is described as follows: Cytotoxicity against rat PC12 cells assessed as reduction in cell viability at 3.125 to 50 uM after 24 hrs by MTT assay. The format is toxicity. As to conditions: pc-12, 24 h.
The nature of another data set: in vitro. As to conditions: PAMPA. Background: In PAMPA a lipid-coated filter parts donor from acceptor wells.
Data set [22] has as its system PC-12. The data set is described as follows: Neuroprotective activity against Cu2+-amyloid beta (1 to 42 residues) induced cell death in rat PC12 cells by phase-contrast microscopy analysis. The format is functional, cell-based.
Data set [23] has as its target Amyloid-beta precursor protein (Homo sapiens) (UniProt P05067). To be noted: at 20 µM.
Description: Inhibition of self-mediated aggregation of amyloid beta (1 to 42 residues) (unknown origin) at 20 uM incubated for 46 to 48 hrs by Thioflavin T binding assay relative to control
Data set [24] deals with T1, Acetylcholinesterase. The data set is described as follows: Mixed-type inhibition of human erythrocyte AChE preincubated for 15 mins followed by addition of acetylthiocholine iodide as substrate in varying concentrations by Lineweaver-Burk reciprocal plot analysis.
Data set [25] deals with Mus musculus. The data set is described as follows: Hepatotoxicity in Kunming mouse assessed as increase in number of inflammatory cells in portal fields of liver at 3 mg/kg, po for 6 days by hematoxylin and eosin-staining based microscopic analysis. The format is toxicity, organism-based. To be noted: in vivo, 144 h.
Data set [26] deals with Mus musculus. As to the kind of experiment: Hepatotoxicity in Kunming mouse assessed as distinct fatty degeneration in hepatocytes at 3 mg/kg, po for 6 days by hematoxylin and eosin-staining based microscopic analysis. To be noted: in vivo, 144 h. The format is toxicity, organism-based.
In data set [27] the test system is Mus musculus. As to the kind of experiment: Hepatotoxicity in Kunming mouse assessed as area of necrosis in hepatocytes at 3 mg/kg, po for 6 days by hematoxylin and eosin-staining based microscopic analysis. The format is toxicity, organism-based, Hepatocyte. To be noted: 144 h.

What is called IC50 is the concentration that inhibits the measured activity by half. A lower IC50 goes with greater potency. The term Papp denotes the rate of passage across a membrane or cell layer, normalised by area and donor concentration. Low readings indicate poor permeation, high ones ready permeation. One may read the inhibition as the percentage by which the read-out fell short of the control.

SMILES strings stand for the structures. The source made the active and inactive calls. The rule behind the calls is not given here.

T1 sequence (P22303 whole entry): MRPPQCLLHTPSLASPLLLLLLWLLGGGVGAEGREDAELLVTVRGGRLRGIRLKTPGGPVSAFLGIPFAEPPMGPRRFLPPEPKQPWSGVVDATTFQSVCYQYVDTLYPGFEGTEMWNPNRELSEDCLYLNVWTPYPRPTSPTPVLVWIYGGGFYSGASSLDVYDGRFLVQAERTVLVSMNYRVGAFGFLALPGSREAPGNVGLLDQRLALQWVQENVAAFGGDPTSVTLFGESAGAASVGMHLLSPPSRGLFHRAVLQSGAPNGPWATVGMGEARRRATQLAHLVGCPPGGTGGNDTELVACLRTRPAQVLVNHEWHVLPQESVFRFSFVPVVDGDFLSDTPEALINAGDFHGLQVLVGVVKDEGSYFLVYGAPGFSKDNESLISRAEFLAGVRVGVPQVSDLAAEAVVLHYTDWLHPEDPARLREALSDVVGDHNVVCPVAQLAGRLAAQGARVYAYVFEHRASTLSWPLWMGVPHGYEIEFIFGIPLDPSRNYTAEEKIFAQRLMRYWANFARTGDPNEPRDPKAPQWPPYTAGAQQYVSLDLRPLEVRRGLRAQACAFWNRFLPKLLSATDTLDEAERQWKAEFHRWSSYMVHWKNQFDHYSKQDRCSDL
Chain of Amyloid-beta precursor protein (Homo sapiens) (P05067 whole entry): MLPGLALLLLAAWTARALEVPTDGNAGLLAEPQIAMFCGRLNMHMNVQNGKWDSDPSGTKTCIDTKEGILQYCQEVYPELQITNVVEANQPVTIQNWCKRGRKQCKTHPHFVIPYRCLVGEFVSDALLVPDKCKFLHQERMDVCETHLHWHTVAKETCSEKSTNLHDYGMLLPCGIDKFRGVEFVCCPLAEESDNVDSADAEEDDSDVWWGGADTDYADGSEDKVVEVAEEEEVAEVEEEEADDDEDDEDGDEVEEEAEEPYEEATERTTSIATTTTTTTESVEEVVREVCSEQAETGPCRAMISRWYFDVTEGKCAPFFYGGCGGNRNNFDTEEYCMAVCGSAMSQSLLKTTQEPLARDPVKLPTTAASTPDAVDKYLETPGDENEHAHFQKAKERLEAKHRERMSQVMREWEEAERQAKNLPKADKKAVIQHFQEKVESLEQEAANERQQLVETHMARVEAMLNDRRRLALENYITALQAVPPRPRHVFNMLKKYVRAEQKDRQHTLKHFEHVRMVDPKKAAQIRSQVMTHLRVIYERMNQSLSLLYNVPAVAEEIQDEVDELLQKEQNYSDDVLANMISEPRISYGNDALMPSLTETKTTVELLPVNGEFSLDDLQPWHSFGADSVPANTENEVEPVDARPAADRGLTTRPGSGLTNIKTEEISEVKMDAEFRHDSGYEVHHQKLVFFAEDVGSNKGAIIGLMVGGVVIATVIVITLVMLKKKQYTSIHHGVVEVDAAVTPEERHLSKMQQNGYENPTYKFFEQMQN
Chain of Cholinesterase (Equus caballus, UniProt P81908) (P81908 whole entry, the tested form may be a part): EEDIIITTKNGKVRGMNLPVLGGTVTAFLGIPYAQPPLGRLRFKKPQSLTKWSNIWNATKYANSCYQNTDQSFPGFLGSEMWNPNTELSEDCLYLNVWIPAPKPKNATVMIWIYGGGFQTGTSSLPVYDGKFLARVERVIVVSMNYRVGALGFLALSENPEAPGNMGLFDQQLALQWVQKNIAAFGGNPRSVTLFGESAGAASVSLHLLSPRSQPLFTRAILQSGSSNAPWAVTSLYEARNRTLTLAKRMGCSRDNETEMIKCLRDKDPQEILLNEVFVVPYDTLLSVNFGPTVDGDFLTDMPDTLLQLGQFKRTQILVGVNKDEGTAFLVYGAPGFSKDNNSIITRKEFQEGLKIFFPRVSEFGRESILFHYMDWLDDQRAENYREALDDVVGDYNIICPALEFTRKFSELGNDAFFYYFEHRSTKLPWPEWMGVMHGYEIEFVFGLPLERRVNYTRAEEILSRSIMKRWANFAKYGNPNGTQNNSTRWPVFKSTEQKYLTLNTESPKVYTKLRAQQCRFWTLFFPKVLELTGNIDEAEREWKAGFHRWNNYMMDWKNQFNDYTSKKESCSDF
Chain of Acetylcholinesterase (Electrophorus electricus, UniProt O42275) (O42275 whole entry): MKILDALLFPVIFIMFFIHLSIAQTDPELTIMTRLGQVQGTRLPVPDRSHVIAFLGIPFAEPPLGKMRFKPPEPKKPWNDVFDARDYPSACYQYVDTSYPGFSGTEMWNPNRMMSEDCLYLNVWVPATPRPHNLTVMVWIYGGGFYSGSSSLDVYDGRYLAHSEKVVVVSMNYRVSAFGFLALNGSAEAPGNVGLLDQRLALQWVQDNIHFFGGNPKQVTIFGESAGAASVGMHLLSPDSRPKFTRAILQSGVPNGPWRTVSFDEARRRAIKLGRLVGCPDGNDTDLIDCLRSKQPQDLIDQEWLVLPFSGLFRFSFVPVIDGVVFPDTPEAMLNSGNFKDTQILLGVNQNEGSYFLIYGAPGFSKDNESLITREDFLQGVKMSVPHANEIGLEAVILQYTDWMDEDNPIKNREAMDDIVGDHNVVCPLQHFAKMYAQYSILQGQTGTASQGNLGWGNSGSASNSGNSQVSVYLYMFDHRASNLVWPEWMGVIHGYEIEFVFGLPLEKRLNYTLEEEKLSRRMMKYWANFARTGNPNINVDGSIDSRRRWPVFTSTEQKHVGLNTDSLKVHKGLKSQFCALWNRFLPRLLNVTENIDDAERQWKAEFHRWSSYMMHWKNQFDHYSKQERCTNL
Chain of Cholinesterase (Homo sapiens, UniProt P06276) (P06276 whole entry): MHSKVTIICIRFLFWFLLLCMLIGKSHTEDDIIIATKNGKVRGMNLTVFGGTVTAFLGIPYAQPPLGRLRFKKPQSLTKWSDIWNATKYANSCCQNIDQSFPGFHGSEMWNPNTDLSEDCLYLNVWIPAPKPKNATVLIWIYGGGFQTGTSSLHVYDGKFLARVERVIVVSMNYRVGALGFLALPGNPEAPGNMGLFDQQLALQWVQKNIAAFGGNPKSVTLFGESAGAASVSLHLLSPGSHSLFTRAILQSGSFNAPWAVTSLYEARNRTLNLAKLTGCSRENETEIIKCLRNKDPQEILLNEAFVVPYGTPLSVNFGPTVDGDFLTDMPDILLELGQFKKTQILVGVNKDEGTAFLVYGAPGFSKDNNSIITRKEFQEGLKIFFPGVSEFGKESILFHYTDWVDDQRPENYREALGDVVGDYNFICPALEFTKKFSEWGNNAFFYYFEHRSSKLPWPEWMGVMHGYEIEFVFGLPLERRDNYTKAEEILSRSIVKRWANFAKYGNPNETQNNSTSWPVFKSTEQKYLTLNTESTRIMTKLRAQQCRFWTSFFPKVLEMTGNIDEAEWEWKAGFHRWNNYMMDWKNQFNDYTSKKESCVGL
Description for in vitro: Effective permeability of the compound after 18 hrs by PAMPA

Take `COc1cc2c(cc1OC)C(=O)C(CC1CCN(Cc3cccc(C)n3)CC1)C2` (centres undefined): the Activity result in data set [1] was “Active”; in data set [3], “Active”; with Mus musculus [4], “Non-Toxic”; in the data set on Mus musculus [6], “Non-Toxic”; in the data set with Mus musculus [10], “Non-Toxic”; in the data set with Mus musculus [11] it was “Non-Toxic”. Further, the Activity result in the data set with Mus musculus [12] is “Non-Toxic”; with Mus musculus [13], “Dose-dependent effect”; in the data set on Mus musculus [15] it was “Non-Toxic”; in data set [16], “Active”; with Mus musculus [18], “Non-Toxic”; in data set [19] it was “Active”. Further, the Activity was 0.9 molar ratio in [20] and “Non-Toxic” in the data set listed under Rattus norvegicus. The IC50 was found to be 0.085 µM against Acetylcholinesterase [2], 20.5 µM on Cholinesterase [7], 65.7 µM at Cholinesterase [14] and 0.073 µM at Acetylcholinesterase [17]. In addition, in data set [5], the “inhibition (INH)” value is “Dose-dependent effect”. Also, the outcome with PC-12 [8], in the data set with PC-12 [9], in the data set on PC-12 [21] and with PC-12 [22] was Active. This compound also gave a Papp at 18 h in “in vitro” of 9.7 ×10⁻⁶ cm/s. In addition, the inhibition in [23] was found to be 18.5%. Besides, the inhibition entry on Acetylcholinesterase [24] was “Active”.
Regarding `CN1[C@@H]2C[C@@H](OC(=O)[C@H](CO)c3ccccc3)C[C@H]1[C@@H]1O[C@H]12`, the Activity entry with Mus musculus [25], with Mus musculus [26] and in the data set with Mus musculus [27] was “Non-Toxic” each time.
